According to patent US10167412B2, “Phenol polymer with 5,5′-biaryl bonds, method for preparing same, and uses thereof” (INSTITUT NATIONAL DE LA RECHERCHE AGRONOMIQUE, priority 2013, dated 2019):

Molecular target: T1, estrogen receptors (Homo sapiens, UniProt P03372)
T1 construct: expressed in transfected cells; host or cells: HELN-ERα cell line (HeLa-derived, per own knowledge of Escande et al. 2006)
T1 sequence (P03372 1-595): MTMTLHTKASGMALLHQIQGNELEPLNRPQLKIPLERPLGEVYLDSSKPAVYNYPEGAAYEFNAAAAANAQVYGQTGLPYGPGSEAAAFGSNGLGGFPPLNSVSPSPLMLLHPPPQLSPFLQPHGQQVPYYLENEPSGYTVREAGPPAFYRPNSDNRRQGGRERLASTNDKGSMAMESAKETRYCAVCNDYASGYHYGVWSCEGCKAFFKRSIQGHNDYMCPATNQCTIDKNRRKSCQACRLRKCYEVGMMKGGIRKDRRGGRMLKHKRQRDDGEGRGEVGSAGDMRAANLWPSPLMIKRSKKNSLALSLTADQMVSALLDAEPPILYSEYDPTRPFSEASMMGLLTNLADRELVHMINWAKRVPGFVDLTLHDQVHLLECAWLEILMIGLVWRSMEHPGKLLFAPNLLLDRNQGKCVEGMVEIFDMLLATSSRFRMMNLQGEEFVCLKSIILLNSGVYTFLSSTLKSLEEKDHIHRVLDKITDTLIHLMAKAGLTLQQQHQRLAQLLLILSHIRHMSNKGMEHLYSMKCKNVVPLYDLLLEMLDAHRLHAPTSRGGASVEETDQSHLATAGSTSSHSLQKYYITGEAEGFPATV
Test: Test for toxicity with respect to estrogen receptors on the HELN-ERα cell line
Type: cell-based
Conditions: for interaction with estrogen receptors (% of antagonist activity with respect to estradiol (E2) at 10 nM): FIG. 12, result in words
Description: A test for toxicity with respect to estrogen receptors was carried out for the IDF, PDF, GDF and BDF macrobisphenols, according to the method set out in the publication by Molina-Molina et al., 2008 (Toxicol. Appl. Pharmacol., doi: 10.1016/j.taap.2008.07.017), on the HELN-ERα cell line, described in the publication by Escande et al., 2006 (Biochemical Pharmacology, 71, 1459-1469).
The results obtained, expressed as % of antagonist activity with respect to the activity of estradiol (E2) at 10 nM, as a function of the monomer concentration, are shown in FIG. 12.

Structure (SMILES)	interaction with estrogen receptors (% of antagonist activity with respect to estradiol (E2) at 10 nM)	percentage activity with respect to the activity of estradiol (E2) at 10 nM (at 10^−5 M) [%]	percentage activity with respect to the activity of estradiol (E2) at 10 nM (at 10^−6 M) [%]
COc1cc(CCC(=O)O[C@H]2CO[C@H]3[C@@H]2OC[C@H]3OC(=O)CCc2ccc(O)c(OC)c2)ccc1O [IDF, isosorbide-2,5-(dihydroferulate)]	interact only very little	–	–
COc1cc(CCC(=O)OCCCOC(=O)CCc2ccc(O)c(OC)c2)ccc1O [PDF, propane-1,3-di(dihydroferulate)]	interact only very little	–	–
COc1cc(CCC(=O)OCCCCOC(=O)CCc2ccc(O)c(OC)c2)ccc1O [BDF, butane-1,4-di(dihydroferulate)]	interact only very little	–	–
COc1cc(CCC(=O)OCC(O)COC(=O)CCc2ccc(O)c(OC)c2)ccc1O [GDF, glycerol-3-di(dihydroferulate)]	interact only very little	–	–
CC(C)(c1ccc(O)cc1)c1ccc(O)cc1 [bisphenol A, reference compound]	–	60	45
